Source: patent US20240238423A9, “TETRAHYDROISOQUINOLINE HETEROBIFUNCTIONAL BCL-XL DEGRADERS” (Treeline Biosciences, Inc., priority 2022, published 2024)
Like-named read-outs stand apart in the source and are kept apart here.

Molecular target: T1, Human BCL-XL protein (N-terminal HiBiT tagged BCL-XL in HT1080 cells) (Homo sapiens, UniProt Q07817)
T1 construct: expressed in transfected cells; host or cells: HT-1080 (ATCC CCL-121), stably transduced with lentivirus pLV-UBC-N-HiBiT-BCL-XL-PGK-puro and selected with puromycin
Assay: HiBiT based degradation assay
Assay type: cell-based
Details: HT1080 cells expressing HiBiT-BCL-XL; for Ymin (24 h) / Ymin (6 h): BCL-XL degradation normalized with DMSO control; for DC50: BCL-XL degradation
How it was run: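 This HiBiT degradation assay measured loss of BCL-XL in HT1080 cells that stably express an N-terminal HiBiT-BCL-XL fusion delivered by lentivirus. Cells were added to compound-spotted 384-well plates, and luminescence was read on a PHERAstar FSX reader. Signal was expressed relative to DMSO controls, curves were fitted by four-parameter logistic regression, and for hook-shaped curves the Ymin point served as the bottom plateau when calculating EC50.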

T1 sequence (Q07817 whole entry): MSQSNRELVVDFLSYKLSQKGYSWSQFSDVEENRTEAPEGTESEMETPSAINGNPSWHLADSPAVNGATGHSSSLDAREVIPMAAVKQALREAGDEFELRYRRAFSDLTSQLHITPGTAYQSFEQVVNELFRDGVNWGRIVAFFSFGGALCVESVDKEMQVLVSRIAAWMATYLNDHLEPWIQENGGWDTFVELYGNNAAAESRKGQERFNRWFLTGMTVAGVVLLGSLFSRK

| Structure (SMILES) | Ymin (24 h) | DC50 (24 h, read-out: EC50 (24 h)) [nM] | Ymin (6 h) | DC50 (6 h, read-out: EC50 (6 h)) [nM] |
| --- | --- | --- | --- | --- |
| Cc1c(O[C@@H](C)CCC2CCN(CC(=O)Nc3cccc4c(C5CCC(=O)NC5=O)nn(C)c34)CC2)cccc1-c1ccc(N2CCc3cccc(C(=O)Nc4nc5ccccc5s4)c3C2)nc1C(=O)O (stereo partly drawn) [Compound 169a, 6-[8-(1,3-benzothiazol-2-ylcarbamoyl)-3,4-dihydro-1H-isoquinolin-2-yl]-3-[3-[(1S)-3-[1-[2-[[3-(2,6-dioxo-3-piperidyl)-1-methyl-indazol-7-yl]amino]-2-oxo-ethyl]-4-piperidyl]-1-methyl-propoxy]-2-methyl-phenyl]pyridine-2-carboxylic acid] | B (50% ≤ Ymin < 70%) | < 100 | B (50% ≤ Ymin < 70%) | 100 to 1000 |
| Cc1c(-c2ccc(N3CCc4cccc(C(=O)Nc5nc6ccccc6s5)c4C3)nc2C(=O)NCCCCCCCC(=O)Nc2cccc3c(C4CCC(=O)NC4=O)nn(C)c23)cnn1CC12CC3CC(CC(C3)C1)C2 (stereo not shown) [Compound 114, 2-[5-[1-(1-adamantylmethyl)-5-methyl-pyrazol-4-yl]-6-[[8-[[3-(2,6-dioxo-3-piperidyl)-1-methyl-indazol-7-yl]amino]-8-oxo-octyl]carbamoyl]-2-pyridyl]-N-(1,3-benzothiazol-2-yl)-3,4-dihydro-1H-isoquinoline-8-carboxamide] | – | – | A (Ymin < 50%) | < 100 |
| Cc1c(OCCCN2C[C@H]3CC[C@@H](C2)N3CC(=O)Nc2ccc3c(C4CCC(=O)NC4=O)nn(C)c3c2)cccc1-c1ccc(N2CCc3cccc(C(=O)Nc4nc5ccccc5s4)c3C2)nc1C(=O)O (stereo partly drawn) [Compound 127, 6-(8-(benzo[d]thiazol-2-ylcarbamoyl)-3,4-dihydroisoquinolin-2(1H)-yl)-3-(3-(3-((1R,5S)-8-(2-((3-(2,6-dioxopiperidin-3-yl)-1-methyl-1H-indazol-6-yl)amino)-2-oxoethyl)-3,8-diazabicyclo[3.2.1]octan-3-yl)propoxy)-2-methylphenyl)picolinic acid] | A (Ymin < 50%) | < 100 | B (50% ≤ Ymin < 70%) | < 100 |
| Cc1c(OCCCC[C@H]2CCCN(CC(=O)Nc3ccc4c(C5CCC(=O)NC5=O)nn(C)c4c3)C2)cccc1-c1ccc(N2CCc3cccc(C(=O)Nc4nc5ccccc5s4)c3C2)nc1C(=O)O (stereo partly drawn) [Compound 202a, 6-[8-(1,3-benzothiazol-2-ylcarbamoyl)-3,4-dihydro-1H-isoquinolin-2-yl]-3-[3-[4-[(3S)-1-[2-[[3-(2,6-dioxo-3-piperidyl)-1-methyl-indazol-6-yl]amino]-2-oxo-ethyl]-3-piperidyl]butoxy]-2-methyl-phenyl]pyridine-2-carboxylic acid] | A (Ymin < 50%) | < 100 | – | – |
| Cc1c(OCCN2CCN(CC(=O)Nc3ccc4c(C5CCC(=O)NC5=O)nn(C)c4c3)CC2)cccc1-c1ccc(N2CCc3cccc(C(=O)Nc4nc5ccccc5s4)c3C2)nc1C(=O)O (stereo not shown) [Compound 103, 6-[8-(1,3-benzothiazol-2-ylcarbamoyl)-3,4-dihydro-1H-isoquinolin-2-yl]-3-[3-[2-[4-[2-[[3-(2,6-dioxo-3-piperidyl)-1-methyl-indazol-6-yl]amino]-2-oxo-ethyl]piperazin-1-yl]ethoxy]-2-methyl-phenyl]pyridine-2-carboxylic acid] | A (Ymin < 50%) | < 100 | A (Ymin < 50%) | < 100 |
| Cc1c(-c2ccc(N3CCc4cccc(C(=O)Nc5nc6ccccc6s5)c4C3)nc2C(=O)NCC(=O)Nc2ccc3c(C4CCC(=O)NC4=O)nn(C)c3c2)cnn1Cc1ccccc1 (stereo not shown) [Compound 135, N-(1,3-benzothiazol-2-yl)-2-[5-(1-benzyl-5-methyl-pyrazol-4-yl)-6-[[2-[[3-(2,6-dioxo-3-piperidyl)-1-methyl-indazol-6-yl]amino]-2-oxo-ethyl]carbamoyl]-2-pyridyl]-3,4-dihydro-1H-isoquinoline-8-carboxamide] | – | – | B (50% ≤ Ymin < 70%) | < 100 |
| Cc1c(OCCCC2CCN(CC(=O)Nc3cccc4c(C5CCC(=O)NC5=O)nn(C)c34)CC2)cccc1-c1ccc(N2CCc3cccc(C(=O)Nc4nc5ccccc5s4)c3C2)nc1C(=O)O (stereo not shown) [Compound 158, 6-(8-(benzo[d]thiazol-2-ylcarbamoyl)-3,4-dihydroisoquinolin-2(1H)-yl)-3-(3-(3-(1-(2-((3-(2,6-dioxopiperidin-3-yl)-1-methyl-1H-indazol-7-yl)amino)-2-oxoethyl)piperidin-4-yl)propoxy)-2-methylphenyl)picolinic acid] | B (50% ≤ Ymin < 70%) | 100 to 1000 | C (Ymin ≥ 70%) | < 100 |

Next, values leading:

| Ymin (24 h) | DC50 (24 h, read-out: EC50 (24 h)) [nM] | Ymin (6 h) | DC50 (6 h, read-out: EC50 (6 h)) [nM] | Structure (SMILES) |
| --- | --- | --- | --- | --- |
| C (Ymin ≥ 70%) | < 100 | – | – | Cc1c(O[C@H]2CC[C@H](CCN3CCN(c4cccc5c(C6CCC(=O)NC6=O)nn(C)c45)CC3)CC2)cccc1-c1ccc(N2CCc3cccc(C(=O)Nc4nc5ccccc5s4)c3C2)nc1C(=O)O (stereo partly shown) [Compound 215a, 6-(8-(benzo[d]thiazol-2-ylcarbamoyl)-3,4-dihydroisoquinolin-2(1H)-yl)-3-(3-(((1r,4r)-4-(2-(4-(3-(2,6-dioxopiperidin-3-yl)-1-methyl-1H-indazol-7-yl)piperazin-1-yl)ethyl)cyclohexyl)oxy)-2-methylphenyl)picolinic acid] |
| A (Ymin < 50%) | < 100 | – | – | Cc1c(O[C@H]2CC[C@H](CCC(C)(C)N3CCN(c4ccc5c(C6CCC(=O)NC6=O)nn(C)c5c4)CC3)CC2)cccc1-c1ccc(N2CCc3cccc(C(=O)Nc4nc5ccccc5s4)c3C2)nc1C(=O)O (stereo partly shown) [Compound 340a, 6-(8-(benzo[d]thiazol-2-ylcarbamoyl)-3,4-dihydroisoquinolin-2(1H)-yl)-3-(3-(((1s,4r)-4-(3-(4-(3-(2,6-dioxopiperidin-3-yl)-1-methyl-1H-indazol-6-yl)piperazin-1-yl)-3-methylbutyl)cyclohexyl)oxy)-2-methylphenyl)picolinic acid] |
| A (Ymin < 50%) | < 100 | – | – | Cc1c(CCCCC2CCN(CC(=O)Nc3ccc4c(C5CCC(=O)NC5=O)nn(C)c4c3)CC2)cccc1-c1ccc(N2CCc3cccc(C(=O)Nc4nc5ccccc5s4)c3C2)nc1C(=O)O (stereo not shown) [Compound 292, 6-[8-(1,3-benzothiazol-2-ylcarbamoyl)-3,4-dihydro-1H-isoquinolin-2-yl]-3-[3-[4-[1-[2-[[3-(2,6-dioxo-3-piperidyl)-1-methyl-indazol-6-yl]amino]-2-oxo-ethyl]-4-piperidyl]butyl]-2-methyl-phenyl]pyridine-2-carboxylic acid] |
| A (Ymin < 50%) | < 100 | – | – | Cc1c(OCCCC2CCN(CCc3ccc4c(C5CCC(=O)NC5=O)nn(C)c4c3)CC2)cccc1-c1ccc(N2CCc3cccc(C(=O)Nc4nc5ccccc5s4)c3C2)nc1C(=O)O (stereo not shown) [Compound 303, 6-(8-(benzo[d]thiazol-2-ylcarbamoyl)-3,4-dihydroisoquinolin-2(1H)-yl)-3-(3-(3-(1-(2-(3-(2,6-dioxopiperidin-3-yl)-1-methyl-1H-indazol-6-yl)ethyl)piperidin-4-yl)propoxy)-2-methylphenyl)picolinic acid] |
| A (Ymin < 50%) | < 100 | – | – | Cc1cc(CCCCC2CCN(CC(=O)Nc3ccc4c(C5CCC(=O)NC5=O)nn(C)c4c3)CC2)ccc1-c1ccc(N2CCc3cccc(C(=O)Nc4nc5ccccc5s4)c3C2)nc1C(=O)O (stereo not shown) [Compound 294] |
| B (50% ≤ Ymin < 70%) | < 100 | – | – | Cc1c(O[C@H]2CC[C@H](CC(=O)N3CCN(c4cccc5c(C6CCC(=O)NC6=O)nn(C)c45)CC3)CC2)cccc1-c1ccc(N2CCc3cccc(C(=O)Nc4nc5ccccc5s4)c3C2)nc1C(=O)O (stereo partly shown) [Compound 182a, 6-(8-(benzo[d]thiazol-2-ylcarbamoyl)-3,4-dihydroisoquinolin-2(1H)-yl)-3-(3-(((1r,4r)-4-(2-(4-(3-(2,6-dioxopiperidin-3-yl)-1-methyl-1H-indazol-7-yl)piperazin-1-yl)-2-oxoethyl)cyclohexyl)oxy)-2-methylphenyl)picolinic acid] |
| A (Ymin < 50%) | < 100 | – | – | Cc1c(O[C@H]2CC[C@H](CCCCN3CCN(c4ccc5c(C6CCC(=O)NC6=O)nn(C)c5c4)C[C@@H]3C(F)(F)F)CC2)cccc1-c1ccc(N2CCc3cccc(C(=O)Nc4nc5ccccc5s4)c3C2)nc1C(=O)O (stereo partly drawn) [Compound 346a, 6-(8-(benzo[d]thiazol-2-ylcarbamoyl)-3,4-dihydroisoquinolin-2(1H)-yl)-3-(3-(((1s,4r)-4-(4-((2R)-4-(3-(2,6-dioxopiperidin-3-yl)-1-methyl-1H-indazol-6-yl)-2-(trifluoromethyl)piperazin-1-yl)butyl)cyclohexyl)oxy)-2-methylphenyl)picolinic acid] |
| A (Ymin < 50%) | < 100 | – | – | Cc1c(OCCC[C@H]2CCN(CC(=O)Nc3ccc4c(C5CCC(=O)NC5=O)nn(C)c4c3)[C@@H](C)C2)cccc1-c1ccc(N2CCc3cccc(C(=O)Nc4nc5ccccc5s4)c3C2)nc1C(=O)O (stereo partly drawn) [Compound 343d, 6-[8-(1,3-benzothiazol-2-ylcarbamoyl)-3,4-dihydro-1H-isoquinolin-2-yl]-3-[3-[3-[(2S,4S)-1-[2-[[3-(2,6-dioxo-3-piperidyl)-1-methyl-indazol-6-yl]amino]-2-oxo-ethyl]-2-methyl-4-piperidyl]propoxy]-2-methyl-phenyl]pyridine-2-carboxylic acid] |
| A (Ymin < 50%) | < 100 | – | – | Cc1c(O[C@H]2CC[C@H](CC[C@H](C)CN3CCN(c4ccc5c(C6CCC(=O)NC6=O)nn(C)c5c4)CC3)CC2)cccc1-c1ccc(N2CCc3cccc(C(=O)Nc4nc5ccccc5s4)c3C2)nc1C(=O)O (single isomer, unassigned) [Compound 308b] |
